Series [1] in a line: in vivo. The note with it: Sprague-Dawley, rat, brain / plasma, iv, 0.2 mg/kg.
The nature of series [2]: in vivo. The settings on record: Sprague-Dawley, rat, brain / plasma, iv, 0.2 mg/kg. The source holds these as a separate data set.
The nature of series [3]: in vivo. The settings on record: Sprague-Dawley, rat, iv, 1 mg/kg.
Series [4] in a line: in vitro. The settings on record: human, liver microsomes.
A short description of series [5]: in vivo. The settings on record: Sprague-Dawley, rat, iv, 1 mg/kg. This is another data set of the same source.
A short description of series [6]: in vivo. The settings on record: Sprague-Dawley, rat, iv, 1 mg/kg. This is another data set of the same source.
Series [7] can be described thus: in vivo. The note with it: Sprague-Dawley, rat, po, 10 mg/kg.
A short description of series [8]: in vivo. The settings on record: Sprague-Dawley, rat, po, 10 mg/kg. The source holds these as a separate data set.
The nature of series [9]: in vivo. The settings on record: Sprague-Dawley, rat, po, 10 mg/kg. The source holds these as a separate data set.
Series [10] can be described thus: in vivo. The settings on record: Sprague-Dawley, rat, po, 10 mg/kg. The source holds these as a separate data set.
The nature of series [11]: in vitro. The settings on record: Sprague-Dawley, rat, liver microsomes.
A short description of series [12]: in vivo. The note with it: Sprague-Dawley, rat, iv, 1 mg/kg. The source holds these as a separate data set.
Series [13] is described as follows: in vivo. The settings on record: Sprague-Dawley, rat, iv, 1 mg/kg. This is another data set of the same source.
A short description of series [14]: in vitro. The settings on record: dog, MDCK-MDR1.

One may read the Kp as tissue or fluid exposure divided by exposure in the circulation. In “in vivo [1]”, `Cc1nnc(SCC2CCN(S(=O)(=O)c3ccc4c(c3)CCO4)CC2)s1` gave a Kp of 1.25. Besides, in the series “in vivo [2]”, the Kp uu is 1.1.
Usually AUC stands for concentration integrated over time. A higher AUC goes with more exposure. For orientation: CLint scaled means the rate of metabolic loss divided by the concentration. Higher therefore signals rapid turnover. One may read the MRT as a mean duration of stay, worked out from the concentration-time curve. What is called clearance is the volume of plasma or blood freed of the substance per unit of time. The bioavailability is dose-corrected exposure relative to a reference, in per cent. The low end stands for little systemic uptake, the high end for much systemic uptake. One may read the Tmax as the time from dosing to the highest level. The Cmax is the peak of the concentration-time curve. By half-life is commonly meant the time needed for the level to fall by half in the phase considered. A lower half-life goes with rapid decline. As usually defined, the Vd is the apparent volume that relates the amount in the body to the concentration in plasma or blood. Read a low Vd as confinement near the circulation. The Papp is a coefficient for how fast a substance crosses the barrier. Read a high Papp as ready permeation. Take `Cn1ccnc1SC[C@H]1CCN(S(=O)(=O)c2ccc3c(c2)CCO3)C[C@@H]1F`: the figures for the exposure (AUC) at 24 h in “in vivo [3]” and in the series “in vivo [7]” were 301 ng·h/mL and 830 ng·h/mL, respectively. In addition, the results for the CLint scaled at […], 1 µM in the series “in vitro [4]” and in “in vitro [11]” were 318 mL/min/kg and 1770 mL/min/kg, respectively. In the series “in vivo [5]”, the MRT at 24 h is 10.7 h. Besides, in the series “in vivo [6]”, the clearance at 24 h is 56.5 mL/min/kg. This compound also showed a bioavailability at 24 h in the series “in vivo [8]” of 27.6%. Further, the Tmax at 24 h in “in vivo [9]” was 0.25 h. This compound also yielded a maximum concentration (Cmax) at 24 h in the series “in vivo [10]” of 433 ng/mL. The compound also gave a half-life at 24 h in “in vivo [12]” of 14.6 h. Besides, the Vd at 24 h in the series “in vivo [13]” came to 36.6 L/kg. Besides, the Papp in the series “in vitro [14]” is 26.8 ×10⁻⁶ cm/s.
Turning to `Cn1ccnc1SCC1CCN(S(=O)(=O)c2ccc3ncsc3c2)CC1`, the Kp in the series “in vivo [1]” is under 0.48. In the series “in vivo [2]”, this compound showed a Kp uu of under 0.5.
Taken in the same sequence, the figures for `Cc1cn(C)c(SCC2CCN(S(=O)(=O)c3ccc4c(c3)CCO4)CC2)n1` were 0.07 and 0.19.
On the same counts, the results for `CC(Sc1nccn1C)C1CCN(S(=O)(=O)c2ccc3c(c2)CCO3)CC1` (centres undefined) are 0.22 and 0.29.
On the same counts, the results for `Cn1ccnc1SCC1CCN(S(=O)(=O)c2ccc3c(c2)OCO3)CC1` are 0.53 and 1.88.
`Cc1nc(SCC2CCN(S(=O)(=O)c3ccc4c(c3)CCO4)CC2)n(C)c1C`: in “in vivo [1]”, the Kp is 0.22. This compound gave a Kp uu in the series “in vivo [2]” of 0.32.
In the series “in vivo [1]”, `O=S(=O)(c1ccc2c(c1)CCO2)N1CCC(CSc2nccs2)CC1` registered a Kp of 0.27. This compound gave a Kp uu in “in vivo [2]” of 0.23.
In the series “in vivo [1]”, `Cn1ccnc1SCC1CCN(S(=O)(=O)c2ccc3c(c2)CCO3)CC1` yielded a partition ratio (Kp) of 0.08. Further, the intrinsic clearance (CLint scaled) at […], 1 µM in the series “in vitro [4]” came to 1270 mL/min/kg. The compound further returned a Kp uu in “in vivo [2]” of 0.11.

For the origin of these results see ChEMBL document CHEMBL5154860 (J Med Chem, 2022).
